Measurements taken from PubChem BioAssay (NCI).
Several values for one entry are separate records, joined by “and”; a condition that tells them apart may be missing. Equal entries are not always repeated.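 Compound exposure: 48 hours, 5 concentrations, 96-well plates. GI50 marks 50% less growth. At the TGI there is no net growth.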

Columns and labels:
Assay in all cases: NCI-60 cell line screen, 48 h; in the data active = GI50 below about 0.43 µM; inactive = the rest
786-0 renal = system: 786-0 renal
A498 renal = system: A498 renal
A549 NSCLC = system: A549 NSCLC
ACHN renal = system: ACHN renal
BT-549 breast = system: BT-549 breast
CAKI-1 renal = system: CAKI-1 renal
CCRF-CEM leukemia = system: CCRF-CEM leukemia
COLO 205 colon = system: COLO 205 colon
DU-145 prostate = system: DU-145 prostate
EKVX NSCLC = system: EKVX NSCLC
HCC-2998 colon = system: HCC-2998 colon
HCT-116 colon = system: HCT-116 colon
HCT-15 colon = system: HCT-15 colon
HL-60(TB) leukemia = system: HL-60(TB) leukemia
HOP-62 NSCLC = system: HOP-62 NSCLC
HOP-92 NSCLC = system: HOP-92 NSCLC
HS 578T breast = system: HS 578T breast
HT29 colon = system: HT29 colon
IGROV1 ovarian = system: IGROV1 ovarian
K-562 leukemia = system: K-562 leukemia
KM12 colon = system: KM12 colon
LOX IMVI melanoma = system: LOX IMVI melanoma
M14 melanoma = system: M14 melanoma
MALME-3M melanoma = system: MALME-3M melanoma
MCF7 breast = system: MCF7 breast
MDA-MB-231 breast = system: MDA-MB-231 breast
MDA-MB-435 = system: MDA-MB-435
MDA-N = system: MDA-N
MOLT-4 leukemia = system: MOLT-4 leukemia
NCI-H226 lung = system: NCI-H226 lung
NCI-H23 lung = system: NCI-H23 lung
NCI-H460 lung = system: NCI-H460 lung
NCI-H522 lung = system: NCI-H522 lung
NCI/ADR-RES ovarian = system: NCI/ADR-RES ovarian
OVCAR-3 ovarian = system: OVCAR-3 ovarian
OVCAR-4 ovarian = system: OVCAR-4 ovarian
OVCAR-5 ovarian = system: OVCAR-5 ovarian
OVCAR-8 ovarian = system: OVCAR-8 ovarian
PC-3 prostate = system: PC-3 prostate
RPMI-8226 leukemia = system: RPMI-8226 leukemia
RXF 393 renal = system: RXF 393 renal
SF-295 CNS = system: SF-295 CNS
SK-MEL-28 melanoma = system: SK-MEL-28 melanoma
SK-MEL-5 melanoma = system: SK-MEL-5 melanoma
SK-OV-3 ovarian = system: SK-OV-3 ovarian
SN12C renal = system: SN12C renal
SNB-19 CNS = system: SNB-19 CNS
SNB-75 CNS = system: SNB-75 CNS
SR leukemia = system: SR leukemia
SW-620 colon = system: SW-620 colon
T-47D breast = system: T-47D breast
TK-10 renal = system: TK-10 renal
U251 CNS = system: U251 CNS
UACC-62 melanoma = system: UACC-62 melanoma
UO-31 renal = system: UO-31 renal
SF-268 CNS = system: SF-268 CNS
SF-539 CNS = system: SF-539 CNS
SK-MEL-2 melanoma = system: SK-MEL-2 melanoma
UACC-257 melanoma = system: UACC-257 melanoma

NC(=O)C1CCCN1C(=O)C(Cc1cnc[nH]1)NC(=O)C1CCCC1 (centres undefined)
> 100 µM: TGI (786-0 renal) | TGI (A498 renal) | TGI (A549 NSCLC) | TGI (ACHN renal) | TGI (BT-549 breast) | TGI (CAKI-1 renal) | TGI (CCRF-CEM leukemia) | TGI (COLO 205 colon) | TGI (DU-145 prostate) | TGI (EKVX NSCLC) | TGI (HCC-2998 colon) | TGI (HCT-116 colon) | TGI (HCT-15 colon) | TGI (HL-60(TB) leukemia) | TGI (HOP-62 NSCLC) | TGI (HOP-92 NSCLC) | TGI (HS 578T breast) | TGI (HT29 colon) | TGI (IGROV1 ovarian) | TGI (K-562 leukemia) | TGI (KM12 colon) | TGI (LOX IMVI melanoma) | TGI (M14 melanoma) | TGI (MALME-3M melanoma) | TGI (MCF7 breast) | TGI (MDA-MB-231 breast) | TGI (MDA-MB-435) | TGI (MDA-N) | TGI (MOLT-4 leukemia) | TGI (NCI-H226 lung) | TGI (NCI-H23 lung) | TGI (NCI-H460 lung) | TGI (NCI-H522 lung) | TGI (NCI/ADR-RES ovarian) | TGI (OVCAR-3 ovarian) | TGI (OVCAR-4 ovarian) | TGI (OVCAR-5 ovarian) | TGI (OVCAR-8 ovarian) | TGI (PC-3 prostate) | TGI (RPMI-8226 leukemia) | TGI (RXF 393 renal) | TGI (SF-295 CNS) | TGI (SK-MEL-28 melanoma) | TGI (SK-MEL-5 melanoma) | TGI (SK-OV-3 ovarian) | TGI (SN12C renal) | TGI (SNB-19 CNS) | TGI (SNB-75 CNS) | TGI (SR leukemia) | TGI (SW-620 colon) | TGI (T-47D breast) | TGI (TK-10 renal) | TGI (U251 CNS) | TGI (UACC-62 melanoma) | TGI (UO-31 renal)

CNC(=O)C(C)NC(=O)C(Cc1ccccc1)NC(=O)c1ccccc1 (centres undefined)
> 100 µM: TGI (786-0 renal) | TGI (A498 renal) | TGI (A549 NSCLC) | TGI (ACHN renal) | TGI (BT-549 breast) | TGI (CAKI-1 renal) | TGI (CCRF-CEM leukemia) | TGI (COLO 205 colon) | TGI (DU-145 prostate) | TGI (EKVX NSCLC) | TGI (HCC-2998 colon) | TGI (HCT-116 colon) | TGI (HCT-15 colon) | TGI (HL-60(TB) leukemia) | TGI (HOP-62 NSCLC) | TGI (HOP-92 NSCLC) | TGI (HS 578T breast) | TGI (HT29 colon) | TGI (IGROV1 ovarian) | TGI (K-562 leukemia) | TGI (KM12 colon) | TGI (LOX IMVI melanoma) | TGI (M14 melanoma) | TGI (MALME-3M melanoma) | TGI (MCF7 breast) | TGI (MDA-MB-231 breast) | TGI (MDA-MB-435) | TGI (MDA-N) | TGI (MOLT-4 leukemia) | TGI (NCI-H226 lung) | TGI (NCI-H23 lung) | TGI (NCI-H460 lung) | TGI (NCI-H522 lung) | TGI (NCI/ADR-RES ovarian) | TGI (OVCAR-3 ovarian) | TGI (OVCAR-4 ovarian) | TGI (OVCAR-5 ovarian) | TGI (OVCAR-8 ovarian) | TGI (PC-3 prostate) | TGI (RPMI-8226 leukemia) | TGI (RXF 393 renal) | TGI (SF-268 CNS) | TGI (SF-295 CNS) | TGI (SF-539 CNS) | TGI (SK-MEL-2 melanoma) | TGI (SK-MEL-28 melanoma) | TGI (SK-MEL-5 melanoma) | TGI (SK-OV-3 ovarian) | TGI (SN12C renal) | TGI (SNB-19 CNS) | TGI (SNB-75 CNS) | TGI (SR leukemia) | TGI (SW-620 colon) | TGI (T-47D breast) | TGI (TK-10 renal) | TGI (U251 CNS) | TGI (UACC-257 melanoma) | TGI (UACC-62 melanoma) | TGI (UO-31 renal)

CN1C=c2c3c(ccc2=C2C=CC4C=C5OCOC5=CC4=C21)OCO3 (centres undefined)
2.79 µM and 5 µM: TGI (UO-31 renal)
3.18 µM and 4.8 µM: TGI (SF-539 CNS)
2.57 µM and 4.4 µM: TGI (RXF 393 renal)
2.8 µM and 13.2 µM: TGI (KM12 colon)
0.253 µM and 1.74 µM: GI50 (MOLT-4 leukemia)
3.49 µM and 14.6 µM: TGI (SNB-75 CNS)
3.02 µM and 5.1 µM: TGI (HT29 colon)
3.2 µM and 21.9 µM: TGI (SF-295 CNS)
3.16 µM and 26.3 µM: TGI (EKVX NSCLC)
1.64 µM and 4.19 µM: TGI (OVCAR-8 ovarian)
3.36 µM and 14.7 µM: TGI (NCI-H226 lung)
2.65 µM and 3.06 µM: TGI (786-0 renal)
3.05 µM and 5.92 µM: TGI (MALME-3M melanoma)
2.89 µM and 3.2 µM: TGI (HCT-15 colon)
4.31 µM and 5.01 µM: TGI (T-47D breast)
inactive: GI50 (A498 renal) 2.24 µM and 14.1 µM | GI50 (A549 NSCLC) 1.77 µM and 6.26 µM | GI50 (ACHN renal) 1.68 µM and 1.85 µM | GI50 (CAKI-1 renal) 1.42 µM and 3.49 µM | GI50 (DU-145 prostate) 2.2 µM and 11.9 µM | GI50 (EKVX NSCLC) 1.72 µM and 13.5 µM | GI50 (HCC-2998 colon) 1.56 µM and 6.55 µM | GI50 (HOP-92 NSCLC) 1.62 µM and 5.71 µM | GI50 (K-562 leukemia) 1.37 µM and 3.01 µM | GI50 (KM12 colon) 1.27 µM and 4.06 µM | GI50 (MCF7 breast) 1.48 µM and 4.4 µM | GI50 (NCI-H226 lung) 1.82 µM and 7.18 µM | GI50 (NCI-H460 lung) 1.63 µM and 3.16 µM | GI50 (NCI/ADR-RES ovarian) 1.58 µM and 6.13 µM | GI50 (OVCAR-5 ovarian) 1.65 µM and 6.19 µM | GI50 (RPMI-8226 leukemia) 0.625 µM and 2.24 µM | GI50 (SF-295 CNS) 1.79 µM and 8.51 µM | GI50 (SK-OV-3 ovarian) 1.85 µM and 12.7 µM | GI50 (SNB-19 CNS) 1.65 µM and 12.2 µM | GI50 (SR leukemia) 2.48 µM | GI50 (SW-620 colon) 1.25 µM | GI50 (TK-10 renal) 1.77 µM and 12 µM | GI50 (UACC-62 melanoma) 1.91 µM
3.04 µM and 18.5 µM: TGI (OVCAR-5 ovarian)
2.16 µM and 3.2 µM: TGI (OVCAR-3 ovarian)
3.24 µM and 16.2 µM: TGI (HCC-2998 colon)
0.423 µM and 1.52 µM: GI50 (OVCAR-8 ovarian)
3.2 µM and 24.9 µM: TGI (TK-10 renal)
2.95 µM and 10.3 µM: TGI (NCI-H23 lung)
2.76 µM and 3.3 µM: TGI (NCI-H522 lung)
2.74 µM and 10.6 µM: TGI (CAKI-1 renal)
0.21 µM and 1.03 µM: GI50 (CCRF-CEM leukemia)
3.05 µM and 4.01 µM: TGI (IGROV1 ovarian)
3.27 µM and 14.3 µM: TGI (NCI/ADR-RES ovarian)
3.07 µM and 7.28 µM: TGI (SK-MEL-28 melanoma)
1.86 µM and 6.79 µM: TGI (RPMI-8226 leukemia)
3.38 µM and 6.26 µM: TGI (BT-549 breast)
3.76 µM and 24.3 µM: TGI (DU-145 prostate)
3.26 µM and 10.1 µM: TGI (UACC-257 melanoma)
2.52 µM and 2.99 µM: TGI (SW-620 colon)
2.95 µM and 6.14 µM: TGI (SK-MEL-5 melanoma)
3.05 µM and 5.73 µM: TGI (U251 CNS)
0.434 µM and 0.847 µM: TGI (HL-60(TB) leukemia)
2.85 µM and 9.48 µM: TGI (PC-3 prostate)
3.96 µM and 25.4 µM: TGI (SK-OV-3 ovarian)
> 24.9 µM and 5.78 µM: TGI (HS 578T breast)
2.89 µM and 17.4 µM: TGI (MCF7 breast)
3.18 µM and 9.8 µM: TGI (NCI-H460 lung)
2.45 µM and 3.61 µM: TGI (MDA-MB-435)
3.53 µM and 7.5 µM: TGI (OVCAR-4 ovarian)
2.54 µM and 4.52 µM: TGI (MDA-MB-231 breast)
3.53 µM and 5.87 µM: TGI (SK-MEL-2 melanoma)
3.95 µM and 18.8 µM: TGI (A549 NSCLC)
2.9 µM and 3.87 µM: TGI (SN12C renal)
2.78 µM and 3.5 µM: TGI (COLO 205 colon)
2.97 µM and 6.29 µM: TGI (HOP-62 NSCLC)
3.17 µM and 3.33 µM: TGI (LOX IMVI melanoma)
3.46 µM and 6.76 µM: TGI (SF-268 CNS)
5.04 µM and 27.1 µM: TGI (A498 renal)
2.79 µM and 3.98 µM: TGI (MDA-N)
3.07 µM and 25 µM: TGI (SNB-19 CNS)
2.55 µM and 3.78 µM: TGI (M14 melanoma)
3.08 µM and 5.03 µM: TGI (ACHN renal)
2.39 µM and 3.19 µM: TGI (HCT-116 colon)
3 µM and 14.1 µM: TGI (HOP-92 NSCLC)
